Assay [1] concerns southern armyworm (Spodopetra eridania Cramer). Put plainly: Mite/insect screen, Southern armyworm. Type of assay: in vivo. The settings on record: Spodoptera eridania, sprayed leaves, read-out: SAW results (percent mortality); for mortality at 200 ppm: rate 200 ppm; for mortality at 400 ppm: rate 400 ppm. The procedure:
(§1) The compounds of Examples were tested for miticidal and insecticidal activity in the following mite/insect screen.
(§2) Each test compound was formulated by dissolving the compound in acetone/alcohol (50:50) mixture containing 23 g of "TOXIMUL R" (sulfonate/nonionic emulsifier blend) and 13 g of "TOXIMUL S" (sulfonate/nonionic emulsifier blend) per liter. These mixtures were then diluted with water to give the indicated concentrations.
(§3) Twospotted spider mites (Tetranychus urticae Koch) and melon aphids (Aphis gossvpii Glover) were introduced on squash cotyledons and allowed to establish on both leaf surfaces. Other plants in the same treatment pot were left uninfested. The leaves were then sprayed with 5 ml of test solution using a DeVilbiss atomizing sprayer at 10 psi. Both surfaces of the leaves were covered until runoff, and then allowed to dry for one hour. Two uninfested leaves were then excised and placed into a Petri dish containing larval southern armyworm (Spodopetra eridania Cramer).
(§4) After standard exposure periods, percent mortality and phytotoxicity were evaluated. […] The following abbreviations are used in Table 3:
SAW refers to Southern armyworm

Assay [2] relates to melon aphids (Aphis gossvpii Glover). The assay is described as follows: Mite/insect screen, melon aphids. Type of assay: in vivo. The settings on record: Aphis, sprayed leaves, read-out: MA results (percent mortality); for mortality at 200 ppm: rate 200 ppm; for mortality at 400 ppm: rate 400 ppm. The method, then:
as §1, §2, §3, §4
MA refers to melon aphids.

Assay [3] relates to Pyricularia oryzae (rice blast). The assay is described as follows: whole plant or invertebrate. Type of assay: in vivo. Conditions: foliar, read-out: RICE BLAST control rating.
Assay [4] deals with Erysiphe graminis tritici (powdery mildew). Put plainly: Plant pathology screen (Test 1), powdery mildew on wheat. The settings on record: Blumeria graminis, in Triticum aestivum, foliar, read-out: POWD MDEW control rating.
Protocol: (§5) The test compounds were formulated for application by dissolving 50 mg of the compound into 1.25 ml of solvent. The solvent was prepared by mixing 50 ml of "Tween 20" (polyoxyethylene (20) sorbitan monolaurate emulsifier) with 475 ml of acetone and 475 ml of ethanol. The solvent/compound solution was diluted to 125 ml with deionized water. The resulting formulation contains 400 ppm test chemical. Lower concentrations were obtained by serial dilution with the solvent-surfactant mixture.
(§6) The formulated test compounds were applied by foliar spray.
(§7) The formulated technical compounds were sprayed on all foliar surfaces of the host plants (or cut berry) to past run-off. Single pots of each host plant were placed on raised, revolving pedestals in a fume hood. Test solutions were sprayed on all foliar surfaces. All treatments were allowed to dry and the plants were inoculated with the appropriate pathogens within 2-4 hours.
(§8) The effectiveness of test compounds in controlling disease was rated using the following scale.
The test system of assay [5] is Puccinia recondita tritici (leaf rust). Put plainly: Plant pathology screen (Test 1), leaf rust on wheat. Conditions: in Triticum aestivum, foliar, read-out: LEAF RUST control rating.
Protocol: This screen was used to evaluate the efficacy of the present compounds against a variety of different organisms that cause plant diseases.
as §5, §6, §7, §8
Assay [6] concerns Twospotted spider mites (Tetranychus urticae Koch). Put plainly: Mite/insect screen, twospotted spider mites. In kind it is in vivo. The settings on record: Tetranychus urticae, sprayed leaves, read-out: SM results (percent mortality); for mortality at 200 ppm: rate 200 ppm; for mortality at 400 ppm: rate 400 ppm. The procedure:
as §1, §2, §3, §4
SM refers to twospotted spider mites

Assay [7] deals with Southern corn rootworm (Diabrotica undecimpuctata howardi Barber). Put plainly: Mite/insect screen, corn rootworm. Type of assay: in vivo. Conditions: Diabrotica, soil, read-out: CRW results (percent mortality); for mortality at 12 ppm: CRW rate 12.00 ppm; for mortality at 24 ppm: CRW rate 24.00 ppm. The procedure: as §1, §2
Activity on Southern corn rootworm (Diabrotica undecimpuctata howardi Barber) was evaluated by adding two ml of tap water, a presoaked corn seed, and 15 g of dry sandy soil to a one ounce plastic container. The soil was treated with 1 mL of test solution containing a predetermined concentration of test compound. After six to 12 hours of drying, five 2-3 instar corn rootworm larvae were added to the individual cups, which were then capped and held at 23° C.
as §4
CRW refers to corn rootworm

Assay [8] concerns Botrytis cinerea (gray mold). Put plainly: Plant pathology screen (Test 1), gray mold on grape berries. The settings on record: read-out: GRAY MOLD control rating.
Assay [9] relates to Pseudoperonospora cubensis (downy mildew). The assay is described as follows: Plant pathology screen (Test 1), downy mildew on squash. The settings on record: foliar, read-out: DOWN MDEW control rating.

Consider `COc1ccc(CCn2cnc3oc(C)c(C)c3c2=N)cc1` [Example 80, 3-[2-(4-methoxyphenyl)ethyl]-5,6-dimethylfuro[2,3-d]pyrimidin-4(3H)-imine], for which the mortality at 200 ppm in assay [1], in assay [2] and in [6] was 0% throughout. The mortality at 400 ppm in assay [1], in [2] and in assay [6] was 0% each time. For the same compound, the pest or weed control at 400 µg/mL in assay [3], in assay [4], in assay [5] and in assay [8] was 0 to 19% each time. In addition, in assay [7], the mortality at 12 ppm came out at 0%. Besides, the mortality at 24 ppm in assay [7] was 0%.
With `Cc1oc2ncnc(Oc3ccc(F)cc3Cl)c2c1C` [Example 59, 4-(2-chloro-4-fluorophenoxy)-5,6-dimethylfuro[2,3-d]pyrimidine], the mortality at 200 ppm in [1], in assay [2] and in [6] was 0% each time. In addition, the mortality at 400 ppm in assay [1], in assay [2] and in assay [6] was 0% in each case. Also, the pest or weed control at 400 µg/mL in [3] fell in the range of 0 to 19%; in assay [4], 90 to 100%; in assay [5], 20 to 89%; in assay [9], 0 to 19%; in assay [8] it was 0 to 19%. Besides, the mortality at 12 ppm in assay [7] was 0%. In addition, the mortality at 24 ppm in assay [7] was 0%.
`COc1ccc(CCOc2ncnc3oc(C)cc23)cc1` [Example 40, 6-methyl-4-[2-(4-methoxyphenyl)ethoxy]furo[2,3-d]pyrimidine]: the mortality at 200 ppm in assay [1], in assay [2] and in [6] was 0% each time. Besides, the mortality at 400 ppm worked out at 0% in assay [1], 80% in assay [2] and 20% in [6]. Besides, the pest or weed control at 400 µg/mL in [3] was in the range of 0 to 19%; in assay [4], 20 to 89%; in assay [5], 90 to 100%; in assay [9], 90 to 100%; in [8], 0 to 19%. Further, in assay [7], the mortality at 12 ppm amounted to 0%. The mortality at 24 ppm in assay [7] was 0%.
With `Cc1oc2ncnc(NCCC3CCC4CCCCC4C3)c2c1C` (centres unmarked) [Example 18, N-[2-(decahydro-2-naphthyl)ethyl]-5,6-dimethylfuro[2,3-d]pyrimidin-4-amine], the mortality at 200 ppm in [1], in [2] and in [6] was 0% each time. For the same compound, the mortality at 400 ppm in assay [1], in assay [2] and in assay [6] was 0% throughout. The pest or weed control at 400 µg/mL in assay [3] lay within 0 to 19%; in assay [4] it was 0 to 19%; in assay [5] it was 0 to 19%; in [9] it was 0 to 19%; in [8], 20 to 89%. Besides, the mortality at 12 ppm in assay [7] came to 0%. Also, the mortality at 24 ppm in assay [7] came to 0%.
As for `Cc1oc2ncnc(Oc3ccc(OC(F)(F)F)cc3)c2c1C` [Example 32, 5,6-dimethyl-4-[4-(trifluoromethoxy)phenoxy]furo[2,3-d]pyrimidine], the mortality at 200 ppm in assay [1], in assay [2] and in [6] was 0% throughout. For the same compound, the mortality at 400 ppm in assay [1], in assay [2] and in assay [6] was 0% throughout. Also, the pest or weed control at 400 µg/mL in assay [3], in assay [4], in assay [5] and in [9] was 0 to 19% each time. For the same compound, the mortality at 12 ppm in assay [7] turned out to be 0%. In assay [7], the mortality at 24 ppm turned out to be 0%.
`Cc1oc2ncnc(Oc3ccccc3C#N)c2c1C` [Example 37, 2-[(5,6-dimethylfuro[2,3-d]pyrimidin-4-yl)oxy]benzonitrile]: the mortality at 200 ppm stood at 0% in assay [1], 0% in [2] and 90% in assay [6]. Also, the mortality at 400 ppm in assay [1], in [2] and in assay [6] was 0% in each case. Further, the pest or weed control at 400 µg/mL in assay [3] is 0 to 19%; in assay [4], 0 to 19%; in assay [5] it was 0 to 19%; in [9] it was 20 to 89%. Besides, in [7], the mortality at 12 ppm is 0%. The mortality at 24 ppm in assay [7] is 0%.
For the compound `COc1ccccc1CCNc1ncnc2occ(C)c12` [Example 35, 5-methyl-N-[2,(2-methoxyphenyl)ethyl]furo[2,3-d]pyrimidin-4-amine], the mortality at 200 ppm in assay [1], in [2] and in assay [6] was 0% throughout. In addition, the mortality at 400 ppm stood at 0% in assay [1], 30% in assay [2] and 0% in [6]. Also, the pest or weed control at 400 µg/mL in [3] was in the range of 0 to 19%; in [4], 0 to 19%; in assay [5], 90 to 100%; in assay [9], 20 to 89%. In assay [7], the mortality at 12 ppm was 0%. Moreover, in [7], the mortality at 24 ppm was found to be 0%.
As to `COc1cccc(CCNc2ncnc3occ(C)c23)c1` [Example 33, 5-methyl-N-[2-(3-methoxyphenyl)ethyl]furo[2,3-d]pyrimidin-4-amine], the results for the mortality at 200 ppm in [1], in assay [2] and in assay [6] were 0%, 40% and 80%, respectively. Further, the mortality at 400 ppm in assay [1], in assay [2] and in assay [6] was 0% each time. Further, the pest or weed control at 400 µg/mL is 20 to 89% in [3], 90 to 100% in assay [4], 90 to 100% in assay [5] and 90 to 100% in [9]. The mortality at 12 ppm in assay [7] was 0%. Moreover, the mortality at 24 ppm in assay [7] came out at 0%.
On to `Cc1oc2ncnc(OCCc3ccc(OCC(F)(F)F)cc3)c2c1C` [Example 78], for which the figures for the mortality at 200 ppm in [1], in [2] and in assay [6] were 0%, 90% and 20%, respectively. For the same compound, the mortality at 400 ppm in assay [1] amounted to 100%; in assay [2] it was 100%; in assay [6] it was 0%. Further, the mortality at 12 ppm in assay [7] turned out to be 0%. Further, in [7], the mortality at 24 ppm was found to be 0%.
`Cc1oc2ncnc(Oc3ccc(C#N)cc3)c2c1C` [Example 36, 4-[(5,6-dimethylfuro[2,3-d]pyrimidin-4-yl)oxy]benzonitrile]: the mortality at 200 ppm in assay [1], in assay [2] and in assay [6] was 0% in each case. Moreover, the mortality at 400 ppm in [1], in assay [2] and in assay [6] was 0% in each case. Besides, the pest or weed control at 400 µg/mL in assay [3], in assay [4], in assay [5] and in [9] was 0 to 19% throughout. For the same compound, in [7], the mortality at 12 ppm is 0%. Also, the mortality at 24 ppm in [7] came to 0%.
For the compound `Fc1ccc(Oc2ncnc3oc4c(c23)CCCC4)cc1` [Example 34, 4-(4-fluorophenyloxy)-5,6,7,8-tetrahydrobenzofuro[2,3-d]pyrimidine], the mortality at 200 ppm in [1], in assay [2] and in assay [6] was 0% throughout. Further, the mortality at 400 ppm in assay [1], in [2] and in assay [6] was 0% throughout. In addition, the pest or weed control at 400 µg/mL lay within 0 to 19% in [3], 0 to 19% in assay [4], 20 to 89% in assay [5] and 0 to 19% in assay [9]. Besides, the mortality at 12 ppm in assay [7] is 0%. Further, the mortality at 24 ppm in assay [7] turned out to be 0%.

The values above are taken from patent US5486516A, “Furopyrimidine derivatives” (DowElanco, priority 1993, dated 1996).
